This experiment in a line: DPPH radical scavenging antioxidant test. The conditions noted are these: 517 nm; for Inhibition (radical scavenging inhibition): 0.2 mL DPPH (0.75 mM), compound 3 μM in ethanol, 30 minutes in the dark. On the procedure: The antioxidant activity of 6′-(4-bromophenyl)-2′-methoxy-3,4′-bipyridine-3′-carbonitrile was investigated by 2,2-diphenyl-1-picrylhydrazyl (DPPH) in vitro tests that employ vitamin C as the positive control.
The antioxidant properties of the 6′-(4-bromophenyl)-2′-methoxy-3,4′-bipyridine-3′-carbonitrile compound were studied by adding 0.2 mL DPPH (0.75 mM)) to 6′-(4-bromophenyl)-2′-methoxy-3,4′-bipyridine-3′-carbonitrile (3 μM) (4) in ethanol. After 30 minutes of incubation in the dark, the absorbance was read against a blank at 517 nm. Ascorbic acid (vitamin C) was used as standard antioxidants (positive control). A blank sample was prepared by 0.2 mL of DPPH in 3 mL ethanol. A negative control sample was run using ethanol instead of the sample. The radical scavenging inhibition was calculated using the following equation: […]
The antioxidant activity for the synthesized compound is listed in Table 1, using Vitamin C as a reference.

Molecules are shown by their SMILES.

Consider `COc1nc(-c2ccc(Br)cc2)cc(-c2cccnc2)c1C#N` [Product 4, 6′-(4-bromophenyl)-2′-methoxy-3,4′-bipyridine-3′-carbonitrile], for which the “Inhibition (radical scavenging inhibition)” value is 50%. In addition, the “antioxidant potential to vanish the DPPH radical colors, compared to vitamin C” value (DPPH in vitro test, vitamin C as positive control) is reported as “high potential as an antioxidant compared to vitamin C”. In the case of `O=C1O[C@H]([C@@H](O)CO)C(O)=C1O` [vit c, Ascorbic acid, reference compound], the “Inhibition (radical scavenging inhibition)” value is 74%.

The record behind these values is patent US11974995B1, “6′-(4-bromophenyl)-2′-methoxy-3,4′-bipyridine-3′-carbonitrile as an antioxidant compound” (KING FAISAL UNIVERSITY, priority 2023, dated 2024).
